Source: patent publication US20090197921A1, “USE OF NICOTINE, ANALOGUES, THEREOF, PRECURSORS THEREOF OR D[…] IN THE TREATMENT OF VARIOUS PA[…] CAPABLE OF I[…] a-MSH AD[…] PROPHYLACTIC OR T[…]” (priority 2006, published 2009)

Legend:
[1] = twenty four hours later
[2] = Method: Patient they are in the ninth month of pregnant without diabetes or hypertension or neuropathy antecedents. […] Twenty four hours later Amikacina IM every 12 hours was administered. […] It was decided to administrate nicotine in watery vehicle by sublingual pathway in a concentration of 3 mg/ml.
At the beginning 15 drops were administrated and 30 minutes later 10 drops more. […] Nicotine was administrated during 4 weeks in dosis of 5 drops by sublingual pathway every three hours.

[3] = 2 drops sublingual every hour
Description: Patient with post traumatic bleeding (hyphema). […] We indicated a dosis of 2 drops sublingual pathway every hour, for the hyphema was of 90% the vision was poor and the intraocular pressure was 40 mmHg despite last treatment. All medicine was suspended and began the new treatment.

[4] = cited from earlier work

CN1CCCC1c1cccnc1 (stereo not shown) [nicotine]
weight increase [1]: 80 grams
pain ([2]; nicotine 3 mg/ml in watery vehicle, sublingual, 15 drops then 10 drops 30 minutes later): diminished significantly
general physical state ([2]; nicotine 3 mg/ml sublingual): improves in the dramatic form
recovery ([3]; after four weeks): 90%
vision ([3]; three weeks later): 20/40

C/C(=N\N=C(N)N)c1cc(NC(=O)CCCCCCCCC(=O)Nc2cc(/C(C)=N/N=C(N)N)cc(/C(C)=N/N=C(N)N)c2)cc(/C(C)=N/N=C(N)N)c1.Cl.Cl.Cl.Cl [CNI-1493]
subyacent renal trauma by ischemia/reperfussion ([4]; in vivo): does not have effect
distant pulmonary trauma ([4]; renal ischemia/reperfussion): partialy reduces
